According to PMC5584945, “Evaluation of robenidine analog NCL195 as a novel broad-spectrum antibacterial agent” (PLoS ONE, 2017):
≈ marks a conversion by molar mass, not a printed value. Where two headings read alike, the source gives them in different places.

Key:
[1] = test system: S. aureus; assay: MIC, broth micro-dilution (CLSI); type: cell-based, Staphylococcus aureus; settings: for MIC / MIC50 / MIC90: Staphylococcus aureus; for MIC50 / MIC90: S2 Table isolates
[2] = test system: Enterococcus faecalis ATCC 29212; assay: MIC, broth micro-dilution (CLSI), control strain; type: cell-based
Protocol: MICs for NCL812 and its analogs (serial two-fold dilutions commencing at 128 μg/ml) were determined (in duplicate) in round bottom 96-well microtitre trays (Sarstedt 82.1582.001), using the broth micro-dilution method recommended by the Clinical and Laboratory Standards Institute (CLSI). […] MIC50, MIC90 and MIC range for NCL812, NCL195 and NCL219 were calculated against each S. pneumoniae, S. aureus or VRE isolate. To assess the potential activity of NCL195 against Gram-negative bacteria, MICs against Acinetobacter spp, E. coli, K. pneumoniae, P. aeruginosa, Proteus spp and Neisseria meningitidis were performed in the presence or absence of 0.08 mM-20 mM EDTA in a standard checkerboard assay.

[3] = test system: S. aureus ATCC49775; assay: Membrane potential, DiOC2(3) fluorescence; type: cell-based, Staphylococcus aureus; settings: 16 μg/ml, pre-incubated 5 min; versus untreated and ampicillin
Protocol: To further examine the mechanism underlying the perturbation of the cell membrane of S. pneumoniae or S. aureus by the NCL compounds, the membrane potential of the cells was measured by fluorescence spectrometry using (DiOC2(3), essentially as described previously. Briefly, […] cells from an overnight HBA plate were grown in Todd-Hewitt broth supplemented with 1% yeast extract (THY) at 37°C, 5% CO2 until A600 nm = 0.5. […] The cuvette was then placed in a LS 55 Fluorescence Spectrometer (PerkinElmer) set at Ex. 488 nm/Em. 620 nm, with excitation and emission slit widths at 5 nm and 7 nm, respectively). […] All assays were performed at least twice.

[4] = Microsomal metabolic stability; type: in vitro ADME; settings: for microsomal CLint at 0.4 μg/ml / half-life at 0.4 μg/ml: liver microsomes, pH 7.4; for microsomal CLint at 0.4 μg/ml: read-out: CLINT; for Predicted EH: hepatic extraction ratio; for Predicted CLblood: microsome-predicted; for half-life at 0.4 μg/ml: 0.4 μg/ml compound, 0.4 mg/ml protein, NADPH
Protocol: The metabolic stability assay was performed by incubating 0.4 μg/ml of each test compound with human and mouse liver microsomes (Xenotech, Lot# 1210057 and 1310211, respectively) suspended in 0.1 M pH 7.4 phosphate buffer at 37°C and 0.4 mg/ml protein concentration. The metabolic reaction was initiated by the addition of an NADPH-regenerating system (i.e. NADPH is the cofactor required for CYP450-mediated metabolism) and quenched at various time points over a 60 min incubation period by the addition of acetonitrile containing diazepam as internal standard. Control samples (containing no NADPH) were included (and quenched at 2, 30 and 60 min) to monitor for potential degradation in the absence of cofactor. Test compound concentration vs time data were fitted to an exponential decay function to determine the first-order rate constant for substrate depletion. This was used to calculate a degradation half-life (T1/2), in vitro intrinsic clearance (CLINT), microsome-predicted blood clearance (CLblood) and a microsome-predicted hepatic extraction ratio (EH) according to the in vitro half-life method of Obach[53].

[5] = test system: human red blood cells; assay: Haemolysis assay; type: cell-based; settings: 1 h, 37°C; highest concentration used 128 μg/ml
Protocol: This was performed using fresh donor human red blood cells (RBCs), essentially as described previously. Fresh RBCs were washed in PBS three times at 500 × g for 5 min, and then resuspended 1% (w/v) in PBS. […] Thereafter, 198 μL of the 1% RBC solution was added into each well, and the mixture incubated for 1 h at 37°C, with shaking at 100 rpm. Quadruplicate wells containing either 1% Triton X100, or PBS only, served as controls. After incubation, the trays were centrifuged at 1,000 × g for 3 min and 100 μl of supernatant from each well transferred into a new 96-well tray. Absorbance was measured at A450 nm on a Multiskan Ascent 354 Spectrophotometer (Labsystems) and plotted against each dilution. Haemolytic titer was determined as the reciprocal of the dilution at which 50% of erythrocytes were lysed at A450 nm. The experiment was performed twice.

[6] = test system: MDBK; assay: In vitro cytotoxicity, WST-1; type: cell-based, bovine; settings: Bos taurus, 24 h exposure, read-out: IC50 values ± SEM
Source text: (§1) In order to ensure minimal off target mammalian cell cytotoxicity, we assayed NCL812, NCL195 and NCL219 for in vitro cytotoxicity using a panel of adherent mammalian cell lines: Caco-2 (human colorectal adenocarcinoma cell line), HEL 299 (non-cancerous human lung fibroblast cell line), Hep G2 (human hepatocellular carcinoma cell line), MDBK (normal bovine kidney cell line) and MCF7 (human mammary gland adenocarcinoma cell line). Cell lines were maintained in Dulbecco’s Modified Eagle’s Medium (DMEM; […] After 24 h incubation, media was removed, washed once with medium without antibiotics and fresh medium supplemented with 10% (vol/vol) FBS was added. […] Following exposure for 24 h, WST-1 reagent was added to each well at a final concentration of 10%. […] The IC50 value for each compound against each cell line was determined via non-linear regression (three parameters) using GraphPad Prism v6 software. The robustness of assays was confirmed with selected cell lines (Hep G2 and MDBK) seeded onto a 96–well Microwell Nunclon Delta Surface plate (Thermo Scientific Nunc; Cat No: 136101) at 5 × 10^4 cells per well.

[7] = test system: Hep G2; assay: Real-time cell viability, RealTime-Glo MT; type: cell-based, human; settings: 2 or 8 μg/ml, up to 20 h post-treatment
[8] = test system: panel of mammalian cell lines (Caco-2, HEL 299, Hep G2, MDBK, MCF7); assay: In vitro cytotoxicity, WST-1, all cell lines tested; type: cell-based; settings: lower bound over all the cell lines tested
Source text: as §1

C/C(=N\NC(=N)N/N=C(\C)c1ccc(C(C)(C)C)cc1)c1ccc(C(C)(C)C)cc1 [NCL219, (E)-N'-((E)-1-(4-(tert-butyl)phenyl)ethylidene)-2-(1-(4-(tert-butyl)phenyl)ethylidene)hydrazine-1-carboximidhydrazide]
Fold increase of MIC range in the presence of 10% FBS ([1]; 10% FBS versus no FBS): remained essentially the same
MIC ([1]; ATCC 12600 / MSSA, ATCC12600 [Xen29] (MSSA), 10% FBS): 4 µg/mL (≈ 9.86 µM)
MIC ([1]; ATCC 12600 / MSSA, ATCC12600 [Xen29] (MSSA), absence of FBS): 32 µg/mL (≈ 78.9 µM)
MIC ([1]; ATCC 29213 / MSSA, ATCC29213 MSSA (ST5), 10% FBS, read-out: MIC): 8 µg/mL (≈ 19.7 µM)
MIC ([1]; ATCC 29213 / MSSA, ATCC29213 MSSA (ST5), absence of FBS, read-out: MIC): 16 µg/mL (≈ 39.4 µM)
MIC ([1]; ATCC 49775 / MSSA, ATCC 49775 (MSSA), 10% FBS, read-out: MIC): 4 µg/mL (≈ 9.86 µM)
MIC ([1]; ATCC 49775 / MSSA, ATCC 49775 (MSSA), absence of FBS, read-out: MIC): 32 µg/mL (≈ 78.9 µM)
MIC ([1]; IRISH 1 – HA-EMRSA (ST8), 10% FBS, read-out: MIC): > 64 µg/mL
MIC ([1]; IRISH 1 – HA-EMRSA (ST8), absence of FBS, read-out: MIC): > 64 µg/mL
MIC ([1]; IRISH 2 – HA-EMRSA (ST8), 10% FBS, read-out: MIC): 8 µg/mL (≈ 19.7 µM)
MIC ([1]; IRISH 2 – HA-EMRSA (ST8), absence of FBS, read-out: MIC): 32 µg/mL (≈ 78.9 µM)
MIC ([1]; MRSA / USA300, USA 300 - MRSA (ST8), 10% FBS, read-out: MIC): 4 µg/mL (≈ 9.86 µM)
MIC ([1]; MRSA / USA300, USA 300 - MRSA (ST8), absence of FBS, read-out: MIC): > 64 µg/mL
MIC ([1]; MRSA, AUS2-MRSA (ST239), 10% FBS, read-out: MIC): 8 µg/mL (≈ 19.7 µM)
MIC ([1]; MRSA, AUS2-MRSA (ST239), absence of FBS, read-out: MIC): > 64 µg/mL
MIC ([1]; MRSA, AUS3-MRSA (ST239), 10% FBS, read-out: MIC): 8 µg/mL (≈ 19.7 µM)
MIC ([1]; MRSA, AUS3-MRSA (ST239), absence of FBS, read-out: MIC): 64 µg/mL (≈ 158 µM)
MIC ([1]; MRSA, BENGAL BAY PVL+ – CA-MRSA (ST772), absence of FBS): 16 µg/mL (≈ 39.4 µM)
MIC ([1]; MRSA, Classic–HA-MRSA (ST250), 10% FBS, read-out: MIC): 32 µg/mL (≈ 78.9 µM)
MIC ([1]; MRSA, Classic–HA-MRSA (ST250), absence of FBS, read-out: MIC): 32 µg/mL (≈ 78.9 µM)
MIC ([1]; MRSA, NY JAPAN – HA MRSA (ST5), 10% FBS, read-out: MIC): 4 µg/mL (≈ 9.86 µM)
MIC ([1]; MRSA, NY JAPAN – HA MRSA (ST5), absence of FBS, read-out: MIC): > 64 µg/mL
MIC ([1]; MRSA, ST398–CA-MRSA-V (ST398), 10% FBS, read-out: MIC): > 64 µg/mL
MIC ([1]; MRSA, ST398–CA-MRSA-V (ST398), absence of FBS, read-out: MIC): > 64 µg/mL
MIC ([1]; MRSA, WA2–CA-MRSA (ST78), absence of FBS, read-out: MIC): > 64 µg/mL
MIC ([1]; MRSA, WA3–CA-MRSA (ST5), absence of FBS, read-out: MIC): > 64 µg/mL
MIC ([1]; MRSA, WA84–CA-MRSA (ST45), 10% FBS, read-out: MIC): 8 µg/mL (≈ 19.7 µM)
MIC ([1]; MRSA, WA84–CA-MRSA (ST45), absence of FBS, read-out: MIC): > 64 µg/mL
MIC50 ([1]; 10% FBS): 8 µg/mL (≈ 19.7 µM)
MIC90 ([1]; 10% FBS): > 64 µg/mL
MIC50 ([1]; absence of FBS): 64 µg/mL (≈ 158 µM)
MIC90 ([1]; absence of FBS): > 64 µg/mL
MIC ([1]; TAIWAN PVL+ – CA-cMRSA (ST59), 10% FBS, read-out: MIC): 32 µg/mL (≈ 78.9 µM)
MIC ([1]; TAIWAN PVL+ – CA-cMRSA (ST59), absence of FBS, read-out: MIC): > 64 µg/mL
MIC ([1]; UK 15 PVL+ – HA-EMRSA (ST22), 10% FBS, read-out: MIC): 4 µg/mL (≈ 9.86 µM)
MIC ([1]; UK 15 PVL+ – HA-EMRSA (ST22), absence of FBS, read-out: MIC): 32 µg/mL (≈ 78.9 µM)
MIC ([1]; UK 15 – HA-EMRSA (ST22), 10% FBS, read-out: MIC): 8 µg/mL (≈ 19.7 µM)
MIC ([1]; UK 15 – HA-EMRSA (ST22), absence of FBS, read-out: MIC): 64 µg/mL (≈ 158 µM)
MIC ([1]; UK 16 – HA- EMRSA (ST36), 10% FBS, read-out: MIC): 4 µg/mL (≈ 9.86 µM)
MIC ([1]; UK 16 – HA- EMRSA (ST36), absence of FBS, read-out: MIC): 32 µg/mL (≈ 78.9 µM)
MIC ([1]; UK 17 – HA-EMRSA (ST247), 10% FBS, read-out: MIC): 16 µg/mL (≈ 39.4 µM)
MIC ([1]; UK 17 – HA-EMRSA (ST247), absence of FBS, read-out: MIC): 64 µg/mL (≈ 158 µM)
MIC ([2]; ATCC29212, 10% FBS): 8 µg/mL
MIC ([2]; ATCC29212, absence of FBS): 2 µg/mL
Effect on generated membrane potential [3]: large reduction in the magnitude of the generated membrane potential
microsomal CLint at 0.4 μg/ml ([4]; human): 94 µL/min/mg
Predicted EH ([4]; human): 0.79
Predicted CLblood ([4]; human): 16 mL/min/kg
half-life at 0.4 μg/ml ([4]; human): 18 min
half-life at 0.4 μg/ml ([4]; mouse): 14 min
microsomal CLint at 0.4 μg/ml ([4]; mouse): 121 µL/min/mg
Predicted EH ([4]; mouse): 0.72
Predicted CLblood ([4]; mouse): 87 mL/min/kg
50% haemolysis titre (HC50) [5]: 6 µg/mL
IC50 [6]: 16 ± 0.2 µg/mL (≈ 39.4 µM)
Effect on cell viability (real-time) [7]: had a demonstrable effect on viability at 2 μg/ml
IC50 [8]: > 7 µg/mL
